Measured values from ChEMBL document CHEMBL4422631, “Investigation of stereoisomeric bisarylethenesulfonic acid esters for discovering potent and selective PTP1B inhibitors” (Eur J Med Chem, 2019).

Key:
[1] = biological target: T1, Tyrosine-protein phosphatase non-receptor type 1 (Homo sapiens, UniProt P18031); test: Inhibition of PTP1B (unknown origin) using pNPP as substrate after 30 mins
T1 sequence (P18031 whole entry): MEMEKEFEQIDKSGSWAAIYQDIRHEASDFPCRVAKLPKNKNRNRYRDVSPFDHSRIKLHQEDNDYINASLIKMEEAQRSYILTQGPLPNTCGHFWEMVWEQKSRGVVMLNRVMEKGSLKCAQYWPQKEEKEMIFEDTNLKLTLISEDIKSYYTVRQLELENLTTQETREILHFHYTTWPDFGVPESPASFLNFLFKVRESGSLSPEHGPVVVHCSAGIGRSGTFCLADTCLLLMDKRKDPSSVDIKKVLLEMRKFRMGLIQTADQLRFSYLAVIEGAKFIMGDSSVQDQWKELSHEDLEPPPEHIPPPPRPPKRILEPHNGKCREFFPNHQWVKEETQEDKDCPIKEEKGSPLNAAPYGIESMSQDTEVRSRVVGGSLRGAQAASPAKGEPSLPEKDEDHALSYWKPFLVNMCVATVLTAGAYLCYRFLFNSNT

[2] = biological target: T2, Tyrosine-protein phosphatase non-receptor type 11 (Homo sapiens, UniProt Q06124); test: Inhibition of SHP2 (unknown origin) using pNPP as substrate after 30 mins
T2 sequence (Q06124 whole entry): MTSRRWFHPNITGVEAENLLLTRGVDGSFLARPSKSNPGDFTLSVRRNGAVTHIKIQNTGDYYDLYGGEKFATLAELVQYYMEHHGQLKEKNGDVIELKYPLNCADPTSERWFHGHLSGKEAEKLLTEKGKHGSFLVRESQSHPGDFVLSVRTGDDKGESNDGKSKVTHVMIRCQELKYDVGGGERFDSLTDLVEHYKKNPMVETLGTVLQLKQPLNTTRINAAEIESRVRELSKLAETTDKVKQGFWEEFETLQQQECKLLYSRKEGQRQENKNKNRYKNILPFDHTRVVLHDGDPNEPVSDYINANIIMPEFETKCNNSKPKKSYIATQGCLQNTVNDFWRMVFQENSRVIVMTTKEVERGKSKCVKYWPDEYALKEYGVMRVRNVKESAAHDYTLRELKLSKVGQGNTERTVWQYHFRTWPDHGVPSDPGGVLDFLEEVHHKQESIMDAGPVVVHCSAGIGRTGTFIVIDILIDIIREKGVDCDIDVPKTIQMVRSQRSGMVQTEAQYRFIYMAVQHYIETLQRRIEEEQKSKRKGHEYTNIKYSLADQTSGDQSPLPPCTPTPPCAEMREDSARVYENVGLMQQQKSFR

[3] = Apparent permeability of compound at 10 uM at pH 7.4 after 12 hrs by PAMPA; assay type: ADME
[4] = biological target: T3, Tyrosine-protein phosphatase non-receptor type 2 (Homo sapiens, UniProt P17706); test: Inhibition of TCPTP (unknown origin) using pNPP as substrate after 30 mins
T3 sequence (P17706 whole entry): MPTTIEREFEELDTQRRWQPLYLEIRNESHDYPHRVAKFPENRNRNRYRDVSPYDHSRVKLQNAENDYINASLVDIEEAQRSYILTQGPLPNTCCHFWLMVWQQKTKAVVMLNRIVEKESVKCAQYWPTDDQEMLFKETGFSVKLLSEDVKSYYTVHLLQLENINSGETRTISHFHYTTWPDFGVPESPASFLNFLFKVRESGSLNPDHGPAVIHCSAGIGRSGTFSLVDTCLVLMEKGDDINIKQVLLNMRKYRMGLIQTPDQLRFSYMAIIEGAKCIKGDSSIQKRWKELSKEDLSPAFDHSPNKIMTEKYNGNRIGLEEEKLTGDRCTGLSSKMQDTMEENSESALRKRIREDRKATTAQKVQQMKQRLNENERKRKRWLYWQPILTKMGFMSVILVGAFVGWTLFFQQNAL

[5] = biological target: T4, Tyrosine-protein phosphatase non-receptor type 1 (Homo sapiens) (UniProt P18031); test: Inhibition of PTP1B in human HepG2 cells assessed as increase in insulin stimulated glucose uptake at 20 uM preincubated for 24 hrs followed by insulin addition and measured after 10 mins by 2-NBDG dye-based FACS analysis relative to control; assay type: cell-based; parameters: scale not given: the % may be the effect or the level left
T4 sequence (whole entry): T1 sequence (P18031 whole entry)

[6] = biological target: T4, Tyrosine-protein phosphatase non-receptor type 1 (Homo sapiens); test: Inhibition of PTP1B in human HepG2 cells assessed as increase in insulin stimulated glucose uptake at 5 uM preincubated for 24 hrs followed by insulin addition and measured after 10 mins by 2-NBDG dye-based FACS analysis relative to control; assay type: cell-based; parameters: scale not given: the % may be the effect or the level left
[7] = biological target: T4, Tyrosine-protein phosphatase non-receptor type 1 (Homo sapiens); test: Inhibition of PTP1B in human HepG2 cells assessed as increase in insulin stimulated glucose uptake at 10 uM preincubated for 24 hrs followed by insulin addition and measured after 10 mins by 2-NBDG dye-based FACS analysis relative to control; assay type: cell-based; parameters: scale not given: the % may be the effect or the level left

| SMILES | IC50 [1] | further results |
| --- | --- | --- |
| CCOS(=O)(=O)/C=C/c1ccc(O[C@@H]2CN(C(=O)C(=O)Nc3ccc(Oc4ccc5ccccc5c4)cc3)C[C@H]2Oc2ccc(CCS(=O)(=O)OCC)cc2)cc1 | 360 nM | – |
| CCOS(=O)(=O)/C=C/c1ccc(O[C@@H]2CN(C(=O)c3ccccc3)C[C@H]2Oc2ccc(/C=C/S(=O)(=O)OCC)cc2)cc1 | 7810 nM | – |
| CCOS(=O)(=O)/C=C/c1ccc(O[C@@H]2CN(Cc3ccc(Oc4ccccc4)cc3)C[C@H]2Oc2ccc(/C=C/S(=O)(=O)OCC)cc2)cc1 | 7420 nM | – |
| CCOS(=O)(=O)/C=C/c1ccc(O[C@@H]2CN(C(=O)Nc3ccc(Oc4ccc(C(C)C)cc4)cc3)C[C@H]2Oc2ccc(/C=C/S(=O)(=O)OCC)cc2)cc1 | 1370 nM | – |
| CCOS(=O)(=O)/C=C/c1ccc(O[C@@H]2CN(C(=O)c3ccc(Oc4ccccc4)cc3)C[C@H]2Oc2ccc(/C=C/S(=O)(=O)OCC)cc2)cc1 | 2950 nM | – |
| CCOS(=O)(=O)/C=C/c1ccc(O[C@@H]2CN(Cc3ccccc3)C[C@H]2Oc2ccc(/C=C/S(=O)(=O)OCC)cc2)cc1 | 9340 nM | – |
| CCOS(=O)(=O)/C=C/c1ccc(O[C@@H]2CNC[C@H]2Oc2ccc(/C=C/S(=O)(=O)OCC)cc2)cc1 | 16800 nM | IC50 [2]: 23500 nM; Papp at 12 h, 10 µM [3]: 0.93 ×10⁻⁶ cm/s; IC50 [4]: 29600 nM |
| CCCCCCc1ccc(NC(=O)C(=O)N2C[C@@H](Oc3ccc(/C=C/S(=O)(=O)OCC)cc3)[C@H](Oc3ccc(CCS(=O)(=O)OCC)cc3)C2)cc1 | 610 nM | – |
| CCOS(=O)(=O)/C=C/c1ccc(O[C@@H]2CN(C(=O)Nc3ccccc3)C[C@H]2Oc2ccc(/C=C/S(=O)(=O)OCC)cc2)cc1 | 3510 nM | – |
| CCOS(=O)(=O)/C=C/c1ccc(O[C@@H]2CN(C(=O)C(=O)Nc3ccc(Oc4ccccc4)cc3)C[C@H]2Oc2ccc(/C=C/S(=O)(=O)OCC)cc2)cc1 | 1070 nM | – |
| CC(C)NCC(O)COc1cccc2ccccc12 (stereo unspecified) [PROPRANOLOL] | – | Papp at 12 h, 10 µM [3]: 8.71 ×10⁻⁶ cm/s |
| CCOS(=O)(=O)/C=C/c1ccc(O[C@@H]2CN(C(=O)C(=O)Nc3ccc(Oc4ccc(C(C)C)cc4)cc3)C[C@H]2Oc2ccc(/C=C/S(=O)(=O)OCC)cc2)cc1 | 420 nM | – |
| CCOS(=O)(=O)/C=C/c1ccc(O[C@@H]2CN(Cc3ccc(Oc4ccc(C(C)C)cc4)cc3)C[C@H]2Oc2ccc(/C=C/S(=O)(=O)OCC)cc2)cc1 | 6870 nM | – |
| CCCCCCc1ccc(NC(=O)C(=O)N2C[C@H](Oc3ccc(CCS(=O)(=O)OCC)cc3)[C@H](Oc3ccc(/C=C/S(=O)(=O)OCC)cc3)C2)cc1 | 1540 nM | – |
| CCOS(=O)(=O)/C=C/c1ccc(O[C@@H]2CN(C(=O)Nc3ccc(Oc4ccccc4)cc3)C[C@H]2Oc2ccc(/C=C/S(=O)(=O)OCC)cc2)cc1 | 1930 nM | – |
| CCOS(=O)(=O)/C=C/c1ccc(O[C@H]2CNC[C@H]2Oc2ccc(/C=C/S(=O)(=O)OCC)cc2)cc1 | 27400 nM | IC50 [2]: 55200 nM; Papp at 12 h, 10 µM [3]: 0.87 ×10⁻⁶ cm/s; IC50 [4]: 47800 nM |
| CCOS(=O)(=O)/C=C/c1ccc(O[C@@H]2CN(C(=O)c3ccc(Oc4ccc(C(C)C)cc4)cc3)C[C@H]2Oc2ccc(/C=C/S(=O)(=O)OCC)cc2)cc1 | 3360 nM | – |
| CCc1ccc(CCOc2ccc(CC3SC(=O)NC3=O)cc2)nc1 (stereo unspecified) | – | Activity [5]: 78.9%; Activity [6]: 51.1%; Activity [7]: 70.2% |
| CCOS(=O)(=O)/C=C/c1ccc(O[C@@H]2CN(C(=O)C(=O)Nc3ccccc3)C[C@H]2Oc2ccc(/C=C/S(=O)(=O)OCC)cc2)cc1 | 2520 nM | IC50 [2]: 5650 nM; Papp at 12 h, 10 µM [3]: 1.27 ×10⁻⁶ cm/s; IC50 [4]: 7840 nM |

Further lines, with some results ahead:

| IC50 [1] | SMILES | further results |
| --- | --- | --- |
| 1170 nM | CCOS(=O)(=O)/C=C/c1ccc(O[C@@H]2CN(C(=O)C(=O)Nc3ccc(Oc4ccc(C(C)(C)C)cc4)cc3)C[C@@H]2Oc2ccc(CCS(=O)(=O)OCC)cc2)cc1 | – |
| 1450 nM | CCOS(=O)(=O)/C=C/c1ccc(O[C@@H]2CN(C(=O)C(=O)Nc3ccc(Oc4ccc(Cl)cc4)cc3)C[C@@H]2Oc2ccc(CCS(=O)(=O)OCC)cc2)cc1 | – |
| 2790 nM | CCOS(=O)(=O)/C=C/c1ccc(O[C@@H]2CN(C(=O)C(=O)Nc3ccc(Oc4ccccc4)cc3)C[C@@H]2Oc2ccc(CCS(=O)(=O)OCC)cc2)cc1 | – |
| 440 nM | CCOS(=O)(=O)/C=C/c1ccc(O[C@@H]2CN(C(=O)C(=O)Nc3ccc(Oc4ccc(Br)cc4)cc3)C[C@H]2Oc2ccc(CCS(=O)(=O)OCC)cc2)cc1 | – |
| 1510 nM | CCOS(=O)(=O)/C=C/c1ccc(O[C@@H]2CN(C(=O)C(=O)Nc3ccc(Oc4ccc(Br)cc4)cc3)C[C@@H]2Oc2ccc(CCS(=O)(=O)OCC)cc2)cc1 | – |
| 1220 nM | CCOS(=O)(=O)/C=C/c1ccc(O[C@@H]2CN(C(=O)C(=O)Nc3ccc(Oc4ccc(F)cc4)cc3)C[C@@H]2Oc2ccc(CCS(=O)(=O)OCC)cc2)cc1 | – |
| 1260 nM | CCOS(=O)(=O)/C=C/c1ccc(O[C@@H]2CN(C(=O)C(=O)Nc3ccc(Oc4ccc5ccccc5c4)cc3)C[C@@H]2Oc2ccc(CCS(=O)(=O)OCC)cc2)cc1 | – |
| 460 nM | CCOS(=O)(=O)/C=C/c1ccc(O[C@@H]2CN(C(=O)C(=O)Nc3ccc(Oc4ccc(F)cc4)cc3)C[C@H]2Oc2ccc(CCS(=O)(=O)OCC)cc2)cc1 | – |
| 380 nM | CCOS(=O)(=O)/C=C/c1ccc(O[C@@H]2CN(C(=O)C(=O)Nc3ccc(Oc4ccc(Cl)cc4)cc3)C[C@H]2Oc2ccc(CCS(=O)(=O)OCC)cc2)cc1 | – |
| 1390 nM | CCOS(=O)(=O)/C=C/c1ccc(O[C@@H]2CN(C(=O)C(=O)Nc3ccc(Oc4ccc(C(C)C)cc4)cc3)C[C@@H]2Oc2ccc(CCS(=O)(=O)OCC)cc2)cc1 | – |
| 430 nM | CCOS(=O)(=O)/C=C/c1ccc(O[C@@H]2CN(C(=O)C(=O)Nc3ccc(Oc4ccc(C(C)(C)C)cc4)cc3)C[C@H]2Oc2ccc(CCS(=O)(=O)OCC)cc2)cc1 | – |
